According to patent US10730825B2, “Methods for the treatment of diabetic retinopathy and other ophthalmic diseases” (Acucela Inc., priority 2012, dated 2020):
Each block holds one compound with its values, some of them ahead of it.

Experiments:
[1] = tested on: retinal neovascularization; assay: Retinal neovascularization in mouse model of oxygen-induced retinopathy (OIR); conditions: OIR mice; for Retinal neovascular area reduced: 4 days
Method: Pups were euthanized on P17, when neovascularization was maximal and eyes were removed for analysis.
Areas of retinal neovascularization were visualized with isoelectin staining of flatmount preparations and quantified with the lasso tool in Adobe Photoshop; total area of neovascularization indicated the sum of individual areas across the retina, and % neovascularization was relative to the total area of the retina^4.
Statistical analyses were performed using GraphPad Prism software.

VEGF = VEGF up-regulation caused by hypoxic conditions; assay type: in vivo; conditions: for VEGF mRNA levels: compared to vehicle control
Method: FIG. 8 depicts a protocol used to test if ACU-4935 reduced VEGF up-regulation caused by hypoxic conditions. Briefly, animals were adapted for dark for 16 hours, then dosed with ACU-4935. Animals were photobleached for 10 minutes with 50000 Lux 2 hours after being dosed, followed by a 2 hour recovery in the dark. Hypoxia was induced with 6% O2 for 6 hours. A portion of the animals were euthanized and samples were collected at time 0. Another portion of the animals were returned to the dark for 2 more hours prior to being euthanized and sample collection.
Samples were tested for VEGF protein (FIG. 9) and mRNA expression (FIG. 10).

visual cycle isomerase [2] = target: T1, visual cycle isomerase (Homo sapiens, UniProt Q16518); assay: in vitro isomerase activity; assay type: biochemical
T1 sequence (Q16518 1-533): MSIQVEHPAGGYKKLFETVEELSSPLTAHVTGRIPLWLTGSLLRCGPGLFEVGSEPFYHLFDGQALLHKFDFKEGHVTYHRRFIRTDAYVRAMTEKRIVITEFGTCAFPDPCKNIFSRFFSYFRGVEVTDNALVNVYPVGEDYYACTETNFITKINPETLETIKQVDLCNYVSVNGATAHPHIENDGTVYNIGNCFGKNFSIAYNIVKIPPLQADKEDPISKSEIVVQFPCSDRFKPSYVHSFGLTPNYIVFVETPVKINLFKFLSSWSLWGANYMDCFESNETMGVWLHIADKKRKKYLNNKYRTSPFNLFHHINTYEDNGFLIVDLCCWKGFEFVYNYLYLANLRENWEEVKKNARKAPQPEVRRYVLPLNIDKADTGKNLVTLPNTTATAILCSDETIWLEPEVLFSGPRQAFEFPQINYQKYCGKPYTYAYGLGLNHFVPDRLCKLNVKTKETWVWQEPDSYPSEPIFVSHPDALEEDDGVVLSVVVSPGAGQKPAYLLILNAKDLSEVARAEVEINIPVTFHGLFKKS

visual cycle isomerase [3] = target: T2, visual cycle isomerase (Mus musculus, UniProt Q91ZQ5); assay: in vivo isomerase assay single dose, mice
T2 sequence (Q91ZQ5 1-533): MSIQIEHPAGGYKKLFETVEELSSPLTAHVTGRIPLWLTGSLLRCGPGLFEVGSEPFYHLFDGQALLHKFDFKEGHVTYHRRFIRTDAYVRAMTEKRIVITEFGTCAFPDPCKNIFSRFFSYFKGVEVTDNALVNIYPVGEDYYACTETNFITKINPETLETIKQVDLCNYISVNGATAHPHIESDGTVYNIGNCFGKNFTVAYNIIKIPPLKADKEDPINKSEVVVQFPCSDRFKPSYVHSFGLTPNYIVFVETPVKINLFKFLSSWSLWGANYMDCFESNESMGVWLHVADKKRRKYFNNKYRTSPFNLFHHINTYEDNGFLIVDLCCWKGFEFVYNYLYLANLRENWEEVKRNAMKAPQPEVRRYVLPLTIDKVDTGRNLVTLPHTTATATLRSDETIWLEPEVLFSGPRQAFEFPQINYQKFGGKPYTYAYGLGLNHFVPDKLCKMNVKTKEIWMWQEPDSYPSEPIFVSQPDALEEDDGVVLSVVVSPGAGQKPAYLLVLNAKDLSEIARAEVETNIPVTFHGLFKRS

[4] = tested on: retinal cationic activity (Mn2+ uptake); assay: Manganese-enhanced MRI (MEMRI) single dose study; conditions: rats, Mn2+ uptake by MRI
Method: Rats are to be maintained in regular laboratory lighting (12 hours light, 12 hours dark) prior to start of experimental period—light exposure, bleaching, dark adaption will vary by cohort (see below).
Animals are to be dosed by oral gavage according to group assignment below. Rats are to be weighed each week of the experimental period.
Dilate pupils by applying 1 drop of tropicamide (0.5%) 10-30 minutes before photobleaching. Photobleach animals for 10 minutes by exposure to 5000 lux 4 hours before MRI imaging.
Inject rats immediately after bleach, 4 hours prior to the start of imaging session. MEMRI signal reflects state of expression of activity-dependent channels during experimental period.
Keep rats in dark (IOP room) during the 4 hours between injection and transport to the imaging center for practice experiments for all groups except group 4. Keep animals from group 4 exposed to light during 4 hours between MnCl2 injection and MRI imaging. Otherwise follow light-dark-bleaching cycle described for each cohort.
A snapshot FLASH inversion recovery (IR) imaging sequence is used to acquire a single imaging slice bisecting the retina in the axial and sagittal planes, using a 12 mm inner diameter linear surface coil. […] The approximate scan time per animal is ˜16 minutes. […]

SMILES: CN(C)C[C@@H]1CCn2cc(c3ccccc32)C2=C(C(=O)NC2=O)c2cn(c3ccccc23)CCO1 [Ruboxistaurin, reference compound]
Retinal neovascular area reduced ([1]; 10 mg/kg/day intraperitoneal, positive control): 29%

IC50 (visual cycle isomerase [2]): 5.2 nM
ED50 (visual cycle isomerase [3]): 0.4 µg/kg
SMILES: CCCC(CCC)COc1cccc([C@H](O)CCN)c1 [ACU-4935, (R)-3-amino-1-(3-(2-propylpentyloxy)phenyl)propan-1-ol]
VEGF mRNA levels (VEGF; 2 hours post-hypoxia): slightly increased
VEGF protein expression (VEGF; after 6% O2 for 6 hours, vs vehicle): Slight differences
VEGF mRNA levels (VEGF; time 0 after hypoxia): decreased
Retinal neovascular area reduced ([1]; 0.3 mg/kg/day intraperitoneal, vs vehicle): 23%
Retinal neovascular area compared to treatment with vehicle [1]: significantly reduced

SMILES: CC(=O)NCC=C(C)C=CC=C(C)C=CC1=C(C)CCCC1(C)C [Retinyl acetamide]
Retinal behaviour after bleach and dark adaptation (expectation) [4]: behave as if they were light adapted
